Literature values, collected in article PMC9276671, “A first-in-human Phase I dose-escalation trial of the novel therapeutic peptide, ALM201, demonstrates a favourable safety profile in unselected patients with ovarian cancer and other advanced solid tumours” (British Journal of Cancer, 2022).

Assays:
cell cycle = conditions: protocol Table 2 (IC50 (nM)); ref Investigator brochure (IB); cited from earlier work
Text: (§1) ALM201 also had no effect on cytok ...

cell viability = conditions: protocol Table 2; ref Investigator brochure (IB); cited from earlier work
Text: as §1

tubulin = test system: tubulin; set-up: method as in Investigator brochure (IB); conditions: ref Investigator brochure (IB), cited from earlier work; for IC50: protocol Table 2, read-out: Tubulin polymerisation IC50; for Tubulin polymerisation IC50: protocol Table 3
[1] = test system: HMEC-1, a human vascular endothelial cell-line; conditions: protocol Table 3; ref Investigator brochure (IB); read-out: Wound scrape IC50; cited from earlier work
Text: page 37: Almac Discovery Confidential There are five main histological subtypes of ovarian cancer differing in tissue of origin, stage of presentation, sensitivity to chemotherapy, survival and driver genetic mutations. The most aggressive of these subtypes are the high grade serous tumours. […] ALM201 also had no effect on cytok ...

HMEC-1 = conditions: protocol Table 3; ref Investigator brochure (IB); read-out: Tube formation IC50; cited from earlier work
Text: as §1

proliferation = conditions: protocol Table 3; ref Investigator brochure (IB); cited from earlier work
Text: as §1

Molecule	Cell cycle arrest (cell cycle)	IC50 (cell viability)	IC50 (tubulin)	IC50 [1]	IC50 (HMEC-1)	IC50 (proliferation)	Tubulin polymerisation IC50 (tubulin)
CC[C@]1(O)C[C@@H]2CN(CCc3c([nH]c4ccccc34)[C@@](C(=O)OC)(c3cc4c(cc3OC)N(C)[C@H]3[C@@](O)(C(=O)OC)[C@H](OC(C)=O)[C@]5(CC)C=CCN6CC[C@]43[C@@H]65)C2)C1 [Vinblastine]	Yes	0.02 nM	[…]				
COc1ccc(C[C@@H](O)c2cc(OC)c(OC)c(OC)c2)cc1O [Combretastatin]	Yes	0.2 nM	360 nM				
CCN(CC)CCNC(=O)c1c(C)[nH]c(/C=C2\C(=O)Nc3ccc(F)cc32)c1C [Sunitinib]				8.9 nM	4.4 nM	[…]	No effect
Bevacizumab				59 nM	2400 nM	158 nM	No effect
